Results as given in US20080051387A1, “TETRAHYDROPYRIDO[3,4-D]PYRIMIDINES AND RELATED ANALOGUES” (priority 2006, published 2008).

These molecules were tested against T1, chimeric human H3 receptor (Homo sapiens, UniProt Q9Y5N1) (assay: Chimeric human H3 receptor screening GTP binding assay (inhibition of histamine-stimulated GTP-gamma35S binding, Example 8)). Conditions: 1 h; assay described in Example 8; symbol "!" in column headed Ki; read-out: Ki ("!": percent inhibition of agonist-induced GTP-gammaS binding to H3).
T1 construct: rat Galpha-i2 (Gnai2, rat); made in house; host or cells: Sf9 insect cells (baculovirus); P2 membranes
T1 sequence (Q9Y5N1 with tags, fused parts or gaps): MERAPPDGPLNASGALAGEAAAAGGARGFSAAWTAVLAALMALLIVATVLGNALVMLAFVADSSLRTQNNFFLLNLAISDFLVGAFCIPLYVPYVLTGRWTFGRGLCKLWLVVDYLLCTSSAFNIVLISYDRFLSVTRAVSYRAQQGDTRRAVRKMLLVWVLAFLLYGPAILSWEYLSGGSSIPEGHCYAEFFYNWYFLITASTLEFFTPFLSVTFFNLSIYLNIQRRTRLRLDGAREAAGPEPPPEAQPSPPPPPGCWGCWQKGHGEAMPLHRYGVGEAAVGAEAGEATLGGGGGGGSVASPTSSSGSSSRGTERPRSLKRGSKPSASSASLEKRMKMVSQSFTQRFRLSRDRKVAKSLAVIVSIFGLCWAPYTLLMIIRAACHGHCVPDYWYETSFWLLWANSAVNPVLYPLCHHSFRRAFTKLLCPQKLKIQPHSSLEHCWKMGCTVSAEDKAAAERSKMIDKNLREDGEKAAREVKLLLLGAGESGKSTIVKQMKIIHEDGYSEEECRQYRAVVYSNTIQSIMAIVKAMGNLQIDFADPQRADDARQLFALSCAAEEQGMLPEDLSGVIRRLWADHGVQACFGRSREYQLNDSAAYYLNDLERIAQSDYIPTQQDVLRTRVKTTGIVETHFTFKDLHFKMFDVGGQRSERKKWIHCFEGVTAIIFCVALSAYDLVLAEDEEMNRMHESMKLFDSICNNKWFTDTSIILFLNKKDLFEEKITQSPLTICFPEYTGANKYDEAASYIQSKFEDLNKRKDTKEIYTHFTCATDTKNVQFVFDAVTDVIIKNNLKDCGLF
Format: biochemical
How it was run: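 Compound tested at 4 μM against 1 μM histamine stimulation; 125 pM GTP-gamma35S binding measured by filtration and scintillation after 60 min at room temperature. Membranes from Sf9 cells expressing chimeric human H3 plus G-protein subunits, in Tris pH 7.4/NaCl/MgCl2/GDP buffer; values are % inhibition after nonspecific subtraction.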

| inhibition at 4 µM [%] | Compound |
| --- | --- |
| ≥ 90 | CCc1ccc(C(=O)N2CCc3cnc(N4CCN(C5CCC5)CC4)nc3CC2)s1 [Compound 451, 2-(4-cyclobutylpiperazin-1-yl)-7-[(5-ethyl-2-thienyl)carbonyl]-6,7,8,9-tetrahydro-5H-pyrimido[4,5-d]azepine] |
| ≥ 90 | Cc1ccc(C(=O)N2CCc3cnc(N4CCN(C5CCC5)CC4)nc3CC2)s1 [Compound 445, 2-(4-cyclobutylpiperazin-1-yl)-7-[(5-methyl-2-thienyl)carbonyl]-6,7,8,9-tetrahydro-5H-pyrimido[4,5-d]azepine] |
| ≥ 90 | O=C(c1cncc(Br)c1)N1CCc2cnc(N3CCN(C4CCC4)CC3)nc2CC1 [Compound 481, 7-[(5-bromopyridin-3-yl)carbonyl]-2-(4-cyclobutylpiperazin-1-yl)-6,7,8,9-tetrahydro-5H-pyrimido[4,5-d]azepine] |
| ≥ 90 | COc1ccc(Cl)c(OC)c1C(=O)N1CCc2cnc(N3CCN(C4CCC4)CC3)nc2CC1 [Compound 426, 7-(3-chloro-2,6-dimethoxybenzoyl)-2-(4-cyclobutylpiperazin-1-yl)-6,7,8,9-tetrahydro-5H-pyrimido[4,5-d]azepine] |
| ≥ 90 | O=C(c1ccc(Cl)cc1)N1CCc2cnc(N3CCN(C4CCC4)CC3)nc2CC1 [Compound 387, 7-(4-chlorobenzoyl)-2-(4-cyclobutylpiperazin-1-yl)-6,7,8,9-tetrahydro-5H-pyrimido[4,5-d]azepine] |
| ≥ 90 | CCOc1ccc(C(=O)N2CCc3cnc(N4CCN(C5CCC5)CC4)nc3CC2)cc1OCC [Compound 383, 2-(4-cyclobutylpiperazin-1-yl)-7-(3,4-diethoxybenzoyl)-6,7,8,9-tetrahydro-5H-pyrimido[4,5-d]azepine] |
| ≥ 90 | O=C(c1cc(Cl)nc(Cl)c1)N1CCc2cnc(N3CCN(C4CCC4)CC3)nc2CC1 [Compound 491, 2-(4-cyclobutylpiperazin-1-yl)-7-(2,6-dichloroisonicotinoyl)-6,7,8,9-tetrahydro-5H-pyrimido[4,5-d]azepine] |
| ≥ 90 | CCOc1cc(C(=O)N2CCc3cnc(N4CCN(C5CCC5)CC4)nc3CC2)cc(OCC)c1OCC [Compound 385, 2-(4-cyclobutylpiperazin-1-yl)-7-(3,4,5-triethoxybenzoyl)-6,7,8,9-tetrahydro-5H-pyrimido[4,5-d]azepine] |

Continued, molecule first:

| Compound | inhibition at 4 µM [%] |
| --- | --- |
| O=C(c1ccccc1C(F)(F)F)N1CCc2cnc(N3CCN(C4CCC4)CC3)nc2CC1 [Compound 439, 2-(4-cyclobutylpiperazin-1-yl)-7-[2-(trifluoromethyl)benzoyl]-6,7,8,9-tetrahydro-5H-pyrimido[4,5-d]azepine] | ≥ 90 |
| O=C(c1ccnc2ccccc12)N1CCc2cnc(N3CCN(C4CCC4)CC3)nc2CC1 [Compound 492, 2-(4-cyclobutylpiperazin-1-yl)-7-(quinolin-4-ylcarbonyl)-6,7,8,9-tetrahydro-5H-pyrimido[4,5-d]azepine] | ≥ 90 |
| O=C(/C=C/c1ccc(Cl)c(Cl)c1)N1CCc2cnc(N3CCN(C4CCC4)CC3)nc2CC1 [Compound 551, 2-(4-cyclobutylpiperazin-1-yl)-7-[(2E)-3-(3,4-dichlorophenyl)prop-2-enoyl]-6,7,8,9-tetrahydro-5H-pyrimido[4,5-d]azepine] | ≥ 90 |
| Cc1cccc(C(=O)N2CCc3cnc(N4CCN(C5CCC5)CC4)nc3CC2)c1N [Compound 537, 2-{[2-(4-cyclobutylpiperazin-1-yl)-5,6,8,9-tetrahydro-7H-pyrimido[4,5-d]azepin-7-yl]carbonyl}-6-methylaniline] | ≥ 90 |
| O=C(c1cccc2ccccc12)N1CCc2cnc(N3CCN(C4CCC4)CC3)nc2CC1 [Compound 404, 2-(4-cyclobutylpiperazin-1-yl)-7-(1-naphthoyl)-6,7,8,9-tetrahydro-5H-pyrimido[4,5-d]azepine] | ≥ 90 |

Same assay, conditions: 1 h; assay of Example 8; symbol "!" in column headed Ki; read-out: percent inhibition of agonist-induced GTP-gammaS binding to H3

| inhibition at 4 µM [%] | Compound |
| --- | --- |
| ≥ 90 | Cc1cc(C(=O)N2CCc3cnc(N4CCN(C5CCC5)CC4)nc3CC2)nn1C [Compound 203, 2-(4-cyclobutylpiperazin-1-yl)-7-[(1,5-dimethyl-1H-pyrazol-3-yl)carbonyl]-6,7,8,9-tetrahydro-5H-pyrimido[4,5-d]azepine] |
| ≥ 90 | COc1ccc(C(=O)N2CCc3cnc(N4CCN(C5CCC5)CC4)nc3CC2)cc1F [Compound 371, 2-(4-cyclobutylpiperazin-1-yl)-7-(3-fluoro-4-methoxybenzoyl)-6,7,8,9-tetrahydro-5H-pyrimido[4,5-d]azepine] |

More lines, now with the values behind:

| Compound | inhibition at 4 µM [%] |
| --- | --- |
| O=C(COc1ccc(Cl)cc1Cl)N1CCc2cnc(N3CCN(C4CCC4)CC3)nc2CC1 [Compound 331, 2-(4-cyclobutylpiperazin-1-yl)-7-[(2,4-dichlorophenoxy)acetyl]-6,7,8,9-tetrahydro-5H-pyrimido[4,5-d]azepine] | ≥ 90 |
| O=C(/C=C/c1c(Cl)cccc1Cl)N1CCc2cnc(N3CCN(C4CCC4)CC3)nc2CC1 [Compound 583, 2-(4-cyclobutylpiperazin-1-yl)-7-[(2E)-3-(2,6-dichlorophenyl)prop-2-enoyl]-6,7,8,9-tetrahydro-5H-pyrimido[4,5-d]azepine] | ≥ 90 |
| O=C(C(c1ccccc1)c1ccccc1)N1CCc2cnc(N3CCN(C4CCC4)CC3)nc2CC1 [Compound 354, 2-(4-cyclobutylpiperazin-1-yl)-7-(diphenylacetyl)-6,7,8,9-tetrahydro-5H-pyrimido[4,5-d]azepine] | ≥ 90 |
| c1nc(N2CCN(C3CCC3)CC2)nc2c1CCN(CC1CCOC1)CC2 (stereo not shown) [Compound 256, 2-(4-cyclobutylpiperazin-1-yl)-7-(tetrahydrofuran-3-ylmethyl)-6,7,8,9-tetrahydro-5H-pyrimido[4,5-d]azepine] | ≥ 90 |
| Cc1cccc(CN2CCc3cnc(N4CCN(C5CCC5)CC4)nc3CC2)n1 [Compound 238, 2-(4-cyclobutylpiperazin-1-yl)-7-[(6-methylpyridin-2-yl)methyl]-6,7,8,9-tetrahydro-5H-pyrimido[4,5-d]azepine] | ≥ 90 |

Same assay, conditions: symbol ! in Ki; test compound 4 μM, 1 μM histamine; read-out: percent inhibition of agonist-induced GTP-gammaS binding to H3

| inhibition at 4 µM [%] | Compound |
| --- | --- |
| ≥ 90 | Cc1ccc(C(=O)N2CCc3c(ncnc3N3CCN(C4CCC4)CC3)C2)cc1 [Compound 24, 4-(4-cyclobutylpiperazin-1-yl)-7-(4-methylbenzoyl)-5,6,7,8-tetrahydropyrido[3,4-d]pyrimidine] |
| ≥ 90 | CC(c1ccnc2ccccc12)N1CCc2c(ncnc2N2CCN(C3CCC3)CC2)C1 (stereo not shown) [Compound 108, 4-(4-cyclobutylpiperazin-1-yl)-7-(1-quinolin-4-ylethyl)-5,6,7,8-tetrahydropyrido[3,4-d]pyrimidine] |
| ≥ 90 | COc1cccc(CN2CCc3c(ncnc3N3CCN(C4CCC4)CC3)C2)c1OC [Compound 94, 4-(4-cyclobutylpiperazin-1-yl)-7-(2,3-dimethoxybenzyl)-5,6,7,8-tetrahydropyrido[3,4-d]pyrimidine] |
| ≥ 90 | Clc1ccc(CN2CCc3ncnc(N4CCN(C5CCC5)CC4)c3CC2)c(Cl)c1 [Compound 181, 4-(4-cyclobutylpiperazin-1-yl)-7-(2,4-dichlorobenzyl)-6,7,8,9-tetrahydro-5H-pyrimido[4,5-d]azepine] |
| ≥ 90 | CCCCCCN1CCc2nc(N3CCN(C4CCC4)CC3)ncc2C1 [Compound 630, 2-(4-cyclobutylpiperazin-1-yl)-6-hexyl-5,6,7,8-tetrahydropyrido[4,3-d]pyrimidine] |
